The values below are quoted from earlier work in US11195597B2, “Method and device for calculating acid dissociation constant, and program” (FUJITSU LIMITED, priority 2015, dated 2021).

The conditions of the data set: known measured value; dissociation point circled in the structure.
Turning to `CC(C)CN(C)C` [Number 35], the pKa is 10.52. For the compound `CC(CCCNC(N)N)C(=O)O` (stereo not drawn) [Number 11], the pKa was 12.48. Regarding `COc1ccncc1` [Number 101, 4-methoxypyridine], the pKa was 6.6. Regarding `CNC1CCCCC1` [Number 18], the pKa is 10.49. On to `COc1cccnc1` [Number 96, 3-methoxypyridine], for which the pKa is on record as 4.9. In the case of `NC(Cc1c[nH]c2ccccc12)C(=O)O` (stereo not drawn) [Number 82], the pKa is given as 9.39. With `c1ccc2c(c1)CCCN2` [Number 132, tetrahydroquinoline], the pKa is given as 5. As to `N#Cc1cccnc1` [Number 98, 3-cyanopyridine], the pKa is listed as 1.4.

On to `c1ccc2cnccc2c1` [Number 120, isoquinoline], for which the pKa is given as 5.14. Turning to `O=[N+]([O-])c1cccnc1` [Number 99, 3-nitropyridine], the pKa is 0.6. In the case of `CC(C)(C)CN` [Number 58], the pKa is reported as 10.21. On to `NCCCCc1ccccc1` [Number 61], for which the pKa is given as 10.4. With `CN(C)c1ccccc1` [Number 109], the pKa is reported as 5.2. Take `CCNCc1ccccc1` [Number 15]: the pKa is listed as 9.68. In the case of `O=[N+]([O-])c1ccccn1` [Number 94, 2-nitropyridine], the pKa is given as −2.6. As for `c1ccc(Nc2ccccc2)cc1` [Number 108], the pKa is given as 0.78. Turning to `CC(CCCNC(N)N)C(=O)O.N` (stereo not drawn) [Number 10], the pKa is 9.04.

As for `CC(C)C(=O)O.N` [Number 5], the pKa is listed as 9.69. Take `CCCCN(CCCC)CCCC` [Number 76, tri-n-butylamine]: the pKa is given as 10.89. As to `CC(CC(=O)O)C(=O)O.N` (stereo not drawn) [Number 13], the pKa is recorded as 9.82. Take `CC(Cc1cnc[nH]1)C(=O)O.N` (stereo not drawn) [Number 43]: the pKa is 9.17. In the case of `NCCCCC(N)C(=O)O` (stereo not drawn) [Number 48], the pKa is listed as 10.53.

As for `CC1CCCCC1.N` [Number 17], the pKa was 10.64. With `c1ccc(-c2ccncc2)cc1` [Number 105, 4-phenylpyridine], the pKa was 5.5.

As to `CCCN(C)C` [Number 33], the pKa was 9.99. Consider `O=[N+]([O-])c1ccncc1` [Number 104, 4-nitropyridine], for which the pKa is recorded as 1.6. `COc1ccccn1` [Number 90, 2-methoxypyridine]: the pKa was 3.3. Regarding `CC(C)CNCC(C)C` [Number 28, di-isobutylamine], the pKa was 10.5.

As for `c1ccc2[nH]cnc2c1` [Number 112], the pKa is recorded as 16.4. Take `C[C@@H](O)[C@H](N)C(=O)O` [Number 75, threonine]: the pKa is on record as 9.1. On to `N#Cc1ccncc1` [Number 103, 4-cyanopyridine], for which the pKa is recorded as 1.9. Take `O=C(O)C1CCCN1` (stereo not drawn) [Number 67]: the pKa is reported as 10.6.

With `c1ncc2[nH]cnc2n1` [Number 124], the pKa is reported as 8.9. `N#Cc1ccccn1` [Number 93, 2-cyanopyridine]: the pKa is given as −0.3. `C=CCN(C)CC=C` [Number 25]: the pKa was 8.79. Take `CCC(C)C(C)C(=O)O.N` (stereo not drawn) [Number 44]: the pKa was 9.68. For the compound `CCCNCCC` [Number 22], the pKa is listed as 11. Regarding `NC(CO)C(=O)O` (stereo not drawn) [Number 72], the pKa is listed as 9.15. For the compound `CC(CCC(=O)O)C(=O)O.N` (stereo not drawn) [Number 41], the pKa is on record as 9.67. Take `c1ncc2[nH]cnc2n1` [Number 123]: the pKa is listed as 2.5. Take `CCC(C)NC(C)CC` (stereo not drawn) [Number 23, di-sec-butylamine]: the pKa is 11.01. For the compound `CNCc1ccccc1` [Number 16], the pKa is recorded as 9.58.

Consider `N[C@@H](Cc1ccccc1)C(=O)O` [Number 59, phenylalanine], for which the pKa is 9.13. With `c1ccc2cc3ncccc3cc2c1` [Number 113], the pKa is 5.05. As to `Nc1ccc2ccccc2c1` [Number 92, 2-naphthalamine], the pKa is recorded as 4.16.

For `CC(CC(N)=O)C(=O)O.N` (stereo not drawn) [Number 12], the pKa was 8.8. Regarding `CCCCN(C)C` [Number 32], the pKa was 10.02. As to `CCc1ccccc1.N` [Number 14], the pKa is recorded as 9.34.

As to `NCCCc1ccccc1` [Number 63], the pKa was 10.2. For `c1ccc(-c2cccnc2)cc1` [Number 100, 3-phenylpyridine], the pKa is reported as 4.8. On to `O=C(c1ccccc1)N1CCNCC1` [Number 52], for which the pKa is 7.78.

As to `CC(CCCCN)C(=O)O.N` (stereo not drawn) [Number 47], the pKa was 8.95. As for `c1ccc2c(c1)[nH]c1ccccc12` [Number 114], the pKa is reported as 19.9. For the compound `NCCCCCc1ccccc1` [Number 60, phenylamylamine], the pKa is 10.49. With `Cc1cccnc1` [Number 97], the pKa is on record as 5.7. Take `CC(C)C(N)C(=O)O` (stereo not drawn) [Number 84]: the pKa is listed as 9.62. For the compound `C=CCNCC=C` [Number 24], the pKa is listed as 9.29.
